Experimental data published in patent US11566049B2, “Cyclic peptides and uses thereof” (LATERAL IP PTY LTD, priority 2018, dated 2023).
Values joined by “and” are separate entries in the source; they are usually repeats but may differ in a detail not shown here. Identical values can stand only once. “Also recorded” adds a separate entry of the source. Positions of bridges follow the written chain, without caps; N, C: chain ends. No end group written: not given here.

Assays:
dorsal horn neurons [1] = assay: whole-cell recording of dorsal horn neurons in spinal cord slices from Chung models (Example 3); assay type: cell-based, rat; conditions: 5 μM
Method: Spinal nerve ligation (Chung model; as described in Examples 1 and 2, above) was performed by a single tight ligation on the L5 spinal nerve. […] This animal model is often used as the “gold standard” for neuropathic pain.
(§1) Adult male Sprague-Dawley rats, weighing 220-250 g (aged 7 weeks and older) at the time of surgery, were used in this study. They were housed in groups of 4, in an air-conditioned room, on a 12-hour light/dark cycle with food and water available ad libitum. All experiments were performed in accordance with the U. K. Animals (Scientific Procedures) Act (1986).
(§2) The animals were housed in groups of 4 in an air-conditioned room on a 12-hour light/dark cycle. Food and water were available ad libitum. Animals were allowed to acclimatise to the environment for experiments for three days by leaving them on a raised metal mesh for at least 40 min. The baseline paw withdrawal threshold (PWT) was examined using a series of graduated von Frey hairs (see below) for 3 consecutive days before surgery and re-assessed on the 6th to 8th day after surgery and on the 12th to 14th day-after surgery before drag dosing.
(§3) Each rat was anaesthetized with 5% isoflurane mixed with oxygen (2 L per min) followed by an intramuscular (i.m.) injection of ketamine 90 mg/kg plus xylazine 10 mg/kg. The back was shaved and sterilized with povidone-iodine. The animal was placed in a prone position and a para-medial incision was made on the skin covering the L4-6 level. The L5 spinal nerve was carefully isolated and tightly ligated with 6/0 silk suture. The wound was then closed in layers after a complete haemostasis. A single dose of antibiotics (Amoxipen, 15 mg/rat, i.p.) was routinely given for prevention of infection after surgery. The animals were placed in a temperature-controlled recovery chamber until fully awake before being returned to their home cages.
The peptides of SEQ ID NO:27 (also referred to herein as LAT9993 Loop) and SEQ ID NO:28 (also referred to herein as LAT9993S or LAT9993 LoopS), were solubilised in distilled water and made up as concentrated stocks and stored frozen until the day of experiment when they were diluted to the required test concentrations in artificial cerebrospinal fluid (aCSF). The aCSF comprised (mM): NaCl, 127; KCl, 1.9; KH2PO4, 1.2; CaCl2, 2.4; MgCl2, 1.3; NaHCO3, 26; D-glucose, 10; equilibrated with 95% O2-5% CO2.
(§4) Ten to fourteen days after surgery, animals were placed in individual Perspex boxes on a raised metal mesh for at least 40 minutes prior to PWT testing. Starting with the filament of lowest force (1 g), each filament was applied perpendicularly to the centre of the ventral surface of the paw until slightly bent for 6 seconds. If the animal withdrew or lifted its paw upon stimulation, a von Frey hair with force immediately lower than that tested was subsequently used. If no response was observed, then a hair with force immediately higher was tested. The lowest amount of force required to induce reliable responses (positive in 2 out of 3 trials) was recorded as the value of PWT. Only animals showing significant mechanical allodynia (PWT≤3.5 g) were selected for subsequent electrophysiological experiments (see FIG. 5).
(§5) Once validation of a neuropathic state had been confirmed, animals were terminally anesthetized using isoflurane (Norvartis Animal Health UK Ltd.), cervically dislocated and decapitated. A laminectomy was performed and the spinal cord, with spinal roots and DRG attached, removed and cut into 250-450 μm thick slices using a Leica VT1000S vibrating microtome (Leica Microsystems UK, Milton Keynes, United Kingdom). Slices were maintained in artificial cerebrospinal fluid (aCSF) at room temperature for 1 hr after slicing before recording. For recording, individual slices were held between two grids in a custom-built chamber continuously perfused with aCSF at a rate of 4-10 ml.min^−1, illuminated from below, and viewed under a dissection microscope. […]

dorsal horn neurons [2] = assay: whole-cell recording of dorsal horn neurons in spinal cord slices from Chung models (Example 4); assay type: cell-based, rat; conditions: 1 μM
Method: as §1, with “(aged/weeks” for “(aged 7 weeks”, “U.K.” for “U. K.”
as §2, with “They” for “Animals”, “day after” for “day-after”, “drug” for “drag”
as §3
LAT9993 LoopS (SEQ ID NO:28), SEQ11+LAT9993 Loop (SEQ ID NO:32; […]), SEQ25+LAT9993 Loop (SEQ ID NO:33; […]), LAT9993 SLoop A4 (SEQ ID NO:30), LAT9993 SLoop A7 (SEQ ID NO:31), LAT9993 SLoop A9 (SEQ ID NO:34; SCRSRPVEASC) and LAT9993 SLoop A10 (SEQ ID NO:35; SCRSRPVESAC), were solubilised in distilled water and made up as concentrated stocks and stored frozen until the day of experiment when they were diluted to the required test concentrations in artificial cerebrospinal fluid (aCSF), as described in Example 3, above.
as §4
as §5, with “microscope. The aCSF was of the following composition (mM): NaCl, 127; KCl, 1.9; KH2PO4, 1.2; CaCl2, 2.4; MgCl2, 1.3; NaHCO3, 26; D-glucose, 10; equilibrated with 95% O2-5% CO2.” for “microscope.”

[3] = system: Lamina I or II neurons in the dorsal horn; assay: whole-cell patch clamp recording in spinal cord slices with intact dorsal root afferents from Chung models (Example 1); assay type: cell-based, rat
Method: An in vitro spinal cord slice with intact dorsal root afferents combined with single-cell whole-cell patch claim electrophysiological recording techniques was used to assess the electrophysiological properties of SEQ ID NO:26 (SCRSRPVESSC; also referred to herein as LAT9993).
Spinal cord slices were prepared from models of neuropathic pain (Chung models; as previously described in Chung et al., Methods Mol Med. 2004; 99:35-45, the contents of which are incorporated herein by reference) and tested against the peptide of SEQ ID NO:26. Chung model rats, aged 8 to 12 weeks, were housed in an air-conditioned room on a 12 hour light/dark cycle with food and water available ad libitum. The rats were terminally anaesthetized using isofluorane and decapitated. […]
Whole-cell recordings were performed at 34-35° C. from Lamina I or II neurons in the dorsal horm of the spinal cord slices using Axopatch 1D and/or Multiclamp 700B amplifies and using the “blind” version of the patch-clamp technique. […] Biocytin was included in the patch solution to allow post-recording identification of the recorded neurons. The peptide of SEQ ID NO:26 was applied to the recorded tissue in the tissue bath at concentrations between 0.5 μM and 5 μM.

Chung model rats = assay: Chung model of neuropathic pain, paw withdrawal (Example 2); assay type: in vivo, rat; conditions: 10 mg/kg orally or intramuscular; 1, 2 and 4 hours post-dosing; n=8
Method: The peptide of SEQ ID NO:26 was administered at 10 mg/kg either orally (PQ) or by intramuscular (IM) injection to Chung model rats and pain was assessed by paw withdrawal. Pre-dosing control; Vehicle: 5% DMSO in PBS. *** p<0.001, compared to the same time points in the Vehicle control group; #p<0.05, compared to SEQ ID NO:26 PO group at the same time point. n=8 for each group.
An […] Chung model of chronic nerve constriction in rats (Chung et al., Methods Mol. Med. 2004; 99:35-45) was used to assess the effect of SEQ ID NO:26 on neuropathic pain. SEQ ID NO:26 was administered at 10 mg/kg either orally or by intramuscular injection to Chung model rats and pain was assessed by paw withdrawal.

CRSRPVESSCS (disulfide 1-10 (inferred); listed as Homo sapiens) [LAT9993 LoopS, cyclic peptide of formula (I), disulphide bond between the two cysteine residues]
dorsal root afferent-mediated EPSPs (dorsal horn neurons [1]): suppression of dorsal root afferent-mediated EPSPs, in one neurone selectively | Input Resistance, mean in presence of peptide (dorsal horn neurons [1]; all cells): 788±191.9 MΩ and 788.0 MΩ | Membrane Potential, mean in presence of peptide (dorsal horn neurons [1]; all cells): −50.6±1.8 mV and −50.6 mV | Normalised Input Resistance (dorsal horn neurons [1]; control = 100): 95.6 | Normalised Input Resistance ΔIR (dorsal horn neurons [1]; control = 100): 4.4 | effect on membrane potential and activity of dorsal horn neurons (dorsal horn neurons [1]; ipsilateral to injury): membrane hyperpolarisation and inhibition of activity in 3 neurons; also recorded: little effect on a further 2 dorsal horn neurons; also recorded: principally induced inhibition of dorsal horn neurons or was without significant effect | dorsal root afferent-mediated EPSPs (dorsal horn neurons [1]; listed as LAT999 LoopS): suppressed dorsal root-evoked excitatory posts-synaptic potentials (EPSPs) in two neurons | dorsal root afferent-mediated EPSPs (dorsal horn neurons [1]; listed as LAT9993S): suppression of EPSPs; also recorded: selectively suppressed | Normalised Membrane Potential (dorsal horn neurons [1]; rest = 100): 109.2 | Normalised Membrane Potential ΔVm (dorsal horn neurons [1]; rest = 100): −9.2 | reversal potential of induced response (VI plots intersect) (dorsal horn neurons [1]; single cells): around −55 mV | ΔIR, change in neuronal input resistance (dorsal horn neurons [1]; vs control, positive in table = reduction): 22.1±24.2 MΩ and 22.1 MΩ | ΔVm, change in membrane potential (dorsal horn neurons [1]; vs rest, positive in table = hyperpolarisation): 3.8±2 mV and 3.8 mV | dorsal root afferent-mediated EPSPs / synaptic inputs (words) (dorsal horn neurons [2]): either slightly suppressed dorsal root-evoked excitatory post-synaptic potentials (EPSPs) or had little effect; also recorded: little effect | Input Resistance, mean in presence of peptide (dorsal horn neurons [2]; all cells): 502.6±104.1 MΩ and 502.6 MΩ | Membrane Potential, mean in presence of peptide (dorsal horn neurons [2]; all cells): −44.7±4.3 mV and −44.7 mV | Normalised Input Resistance (dorsal horn neurons [2]; control = 100): 92.8 | Normalised Input Resistance ΔIR (dorsal horn neurons [2]; control = 100): 7.2 | effect on membrane potential and activity of dorsal horn neurons (dorsal horn neurons [2]; ipsilateral to injury): membrane hyperpolarisation and inhibition of activity in 1 neurone; also recorded: membrane depolarisation in the other two neurons; also recorded: small excitation of dorsal horn | dorsal root afferent-mediated EPSPs / synaptic inputs (words) (dorsal horn neurons [2]; listed as LAT9993 Loop S): little effect | Normalised Membrane Potential (dorsal horn neurons [2]; rest = 100): 91.5 | Normalised Membrane Potential ΔVm (dorsal horn neurons [2]; rest = 100): 8.5 | reversal potential of induced response (VI plots intersect) (dorsal horn neurons [2]; single cells): around −85 mV | ΔIR, change in neuronal input resistance (dorsal horn neurons [2]; vs control, in table positive = reduction, negative = increase): 28.7±34.9 MΩ and 28.7 MΩ

SCRSRPVESSC (disulfide 2-11 (inferred); listed as Homo sapiens) [SEQ ID NO:26, cyclic peptide of formula (I) formed by a disulphide bond between the two cysteine residues]
neuronal input resistance (effect in words) ([3]; 1 μM (FIG. 2), bath applied): reduction in neuronal input resistance; also recorded: reversible on washout | excitatory postsynaptic potentials (EPSPs) ([3]; 5 μM (FIG. 3), 0.1 Hz, 1 Hz): suppressed | pain as measured by paw withdrawal threshold (PWT) (Chung model rats): significantly reduced pain
